Laboratory results taken from patent publication US12421249B2, “Inhibitors of APOL1 and methods of using same” (Vertex Pharmaceuticals Incorporated, priority 2020, dated 2025).
Like-named read-outs stand apart in the source and are kept apart here.

Columns and labels:
APOL1 G1 = target: T1, APOL1 G1 (Homo sapiens, UniProt O14791, I384M/S342G); assay: Trypanosoma brucei brucei Lysis Assay Using APOL1 Recombinant Protein (AlamarBlue viability readout); format: cell-based; conditions: for IC50: IP50 = IC50 for cell proliferation, read-out: Trypanosome Assay IP50; for Emax: read-out: Trypanosome Assay Max Activity (%)
T1 sequence (O14791 28-398 S342G/I384M): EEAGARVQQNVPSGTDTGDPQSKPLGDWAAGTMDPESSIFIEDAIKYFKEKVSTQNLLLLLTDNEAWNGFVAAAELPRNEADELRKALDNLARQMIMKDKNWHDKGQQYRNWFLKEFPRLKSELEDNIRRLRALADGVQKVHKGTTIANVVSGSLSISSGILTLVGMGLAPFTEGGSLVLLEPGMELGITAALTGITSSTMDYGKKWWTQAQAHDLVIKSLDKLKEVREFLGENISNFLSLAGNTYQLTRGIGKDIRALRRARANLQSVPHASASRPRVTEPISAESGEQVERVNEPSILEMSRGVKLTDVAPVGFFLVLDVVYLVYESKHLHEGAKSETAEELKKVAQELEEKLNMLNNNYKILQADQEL
Source text: Trypanosoma brucei brucei is a blood stream parasite to which human, gorillas, and baboons are immune due to the presence of the APOL1 protein in their HDL particles. The protein is uptaken by the parasite via the TbHpHb receptor located in its flagellar pocket and is bonded by the Hpr protein contained in the HDL particles which triggers the receptor endocytosis by the parasite.
Following endocytosis, the formed vesicle containing the HDL particle matures from early to late endosome, and subsequently to lysosome. The concomitant pH change in the lumen of the vesicle triggers the insertion of the APOL1 protein into the membrane of the late endosome/lysosome and hereby triggers lysosomal membrane permeabilization and as a further downstream event, trypanosome lysis. Trypanosoma brucei brucei is sensitive to lysis by all three APOL1 variants (G0, G1, and G2).
The Trypanosoma brucei brucei lysis assay is a lysis assay of the parasite using recombinant APOL1 protein variant followed by a fluorescent detection method of viability by the addition of AlamarBlue reagent to the assay well, a general metabolic redox indicator (AlamarBlue assay).
Briefly, the AlamarBlue active compound, resazurin, a blue, water soluble, non-toxic and cell permeable molecule, which can be followed by absorbance, is reduced by various metabolic pathways into resorufin, a red compound which can be followed by either absorbance or fluorescence. The assay allows the calculation of the percent viability (percent of living Trypanosomes remaining in each well) at the end of a lysis relative to the untreated condition by interpolation of fluorescent values (FLU) on a standard curve with a known amount of seeded trypanosome/well.
Trypanosoma brucei brucei (ATCC, Cat. No. PRA-382)
• Lister 427 VSG 221 bloodstream form.
Equipment • E1-Clip Tip pipette 12 channel adjustable 2-125 μL, Cat. No. 4672070BT • ThermoFisher MultiDrop 384, Cat. No. 5840300 • Multidrop • Agilent Bravo, Cat. No. G5409A • Bravo • SpectraMax M5 Assay Ready Plates (ARPs) • ARPs comes in two formats: • […] final top concentration with a 2.5 fold dilution down. • […] final top concentration with a 3 fold dilution down. • Both have a 10 point Dose response. • 0.1% DMSO final in the Black Assay Plate. • Compounds are diluted 1000 fold in the Black Assay Plate. • Each plate is designed for 14 compounds in duplicate. • In the final Black Assay Plate: • Column 1: Media only (no APOL1) (100% viable) • Column 2-23: 0.05 μg/mL APOL1 (˜EC90) (10% viable with APOL1) • Column 24: 0.1 μg/mL APOL1 (EC100) (Approx. […] Step 2, Day 4 • Centrifuge at 800×g for 5 minutes at room temperature. • Resuspend in 1 mL media. • Make a 1:25 fold dilution (10 μL/240 μL media). • Count on a hemocytometer (after adding parasites). • Let sit for 1-2 minutes for the parasites to settle. • Count should be approximately 100 viable motile parasites/16 grid or approximately 25×10^6 parasites/flask. • Passage the parasites by adding 1×10^6 parasites/T75 flask in 20 mL media. • Passage the parasites by adding 2.33×10^6 parasites/T175 flask in 46.6 mL media. • For every T75 flask should make enough for approximately 1.5×384 well assay plates. • For every T175 flask should make enough for approximately 3.8×384 well assay plates. Step 3, Day 6 • Centrifuge at 800×g for 5 minutes. • Resuspend in 3 mL assay media (No phenol red, no FBS) per 75 starting flask. • Resuspend in 7 mL assay media (No phenol red, no FBS) per 175 flask • Make a 1:25 fold dilution. • Count by hemocytometer. • Every T75 flask set up should have approximately 75×10^6 parasites/flask (verify doubling time=8.7 hours±1 hour). • Every T175 flask set up should have approximately 175×10^6 parasites/flask (verify doubling time=8.7 hours±1 hour). • Require 46×10^6 parasites per 384 well plate (at 120,000 parasites per well). […]

APOL1 = target: T2, APOL1 (Homo sapiens, UniProt O14791); assay: Multi-Tox Assay (MultiTox-Fluor Multiplex Cytotoxicity Assay in tet-inducible APOL1 T-REx-HEK293 cells; Table 46 does not say which APOL1 variant G0/G1/G2); format: cell-based; conditions: APOL1 variant not given; for IC50: IP50 = IC50 for cell proliferation
T2 sequence (O14791 1-398 S342G/I384M): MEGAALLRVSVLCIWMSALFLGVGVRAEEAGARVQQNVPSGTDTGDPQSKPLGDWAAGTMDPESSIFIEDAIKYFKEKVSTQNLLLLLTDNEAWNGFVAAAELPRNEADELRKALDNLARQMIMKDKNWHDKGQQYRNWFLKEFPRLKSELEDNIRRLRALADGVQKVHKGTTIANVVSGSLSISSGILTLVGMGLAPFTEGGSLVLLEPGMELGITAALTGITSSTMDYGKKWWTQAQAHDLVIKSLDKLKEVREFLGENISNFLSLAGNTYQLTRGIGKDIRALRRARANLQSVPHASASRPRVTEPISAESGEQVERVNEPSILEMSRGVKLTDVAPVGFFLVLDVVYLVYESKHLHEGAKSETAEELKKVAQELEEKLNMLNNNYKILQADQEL

SMILES	IC50 (APOL1 G1; Trypanosome Assay) [nM]	Emax (APOL1 G1; Trypanosome Assay) [%]	IC50 (APOL1) [nM]	Emax (APOL1 G1) [%]	Multi-Tox Assay Max Activity (%) (APOL1)	Trypanosome Assay Max Activity (%) (APOL1 G1; Trypanosome Assay)	IC90 (APOL1) [nM]
C[C@H]1C[C@@]2(C[C@@H](c3ncccc3O)N1)OCCc1cc(Cl)sc12 (racemic) [Compound 172]	> 500	64.5	> 500	–	–	–	–
COc1ccc2[nH]c([C@@H]3C[C@]4(C[C@H](C)N3)OCCc3cc(Cl)sc34)cc2n1 (racemic) [Compound 84]	< 50	112	< 50	–	–	–	–
CCc1cc2c(s1)C1(C[C@@H](C)N[C@@H](C)C1)OCC2 (single isomer, unassigned) [Compound 199]	50 to 500	–	< 50	110	–	–	–
C[C@H]1C[C@@]2(C[C@@H](c3cc(C4CCOCC4)[nH]n3)N1)OCCc1cc(Cl)sc12 (stereo in doubt) [Compound 114]	50 to 500	95	< 50	–	99.7	–	–
C[C@H]1C[C@@]2(C[C@@H](c3cnn4c3OCCC4)N1)OCCc1cc(Cl)sc12 (racemic) [Compound 163]	> 500	79.5	> 500	–	–	–	–
COc1nccc([C@@H]2C[C@]3(C[C@H](C)N2)OCCc2cc(Cl)sc23)n1 (racemic) [Compound 110]	50 to 500	115	< 50	–	–	–	–
Cc1ccc([C@@H]2C[C@]3(C[C@H](C)N2)OCCc2cc(Cl)sc23)cn1 (racemic) [Compound 55]	< 50	112	< 50	–	99.7	–	–
C[C@H]1C[C@@]2(C[C@@H](c3cnccc3O)N1)OCCc1cc(Cl)sc12 (racemic) [Compound 160]	> 500	97.5	> 500	–	–	–	–
C[C@H]1C[C@@]2(C[C@@H](c3cccc(=O)[nH]3)N1)OCCc1cc(Cl)sc12 (racemic) [Compound 151]	> 500	85.7	50 to 500	–	–	–	–
CCc1cc2c(s1)C(C)COC21C[C@@H](c2cn(C)nn2)N[C@@H](C)C1 (stereo in doubt) [Compound 10]	50 to 500	101	< 50	–	99.7	–	–
C[C@H]1C[C@@]2(C[C@@H](c3ccc(O)c(F)c3)N1)OCCc1cc(Cl)sc12 (stereo in doubt) [Compound 51]	< 50	102	< 50	–	99.7	–	–
C[C@@H]1CC2(C[C@H](C)N1)OCCc1cc(CC(F)F)sc12 (single isomer, unassigned) [Compound 203]	< 50	102	< 50	–	–	–	–
CC1COC2(C[C@@H](c3cn(C)nn3)N[C@@H](C)C2)c2cc(C(F)(F)F)sc21 (stereo in doubt) [Compound 14]	< 50	102	< 50	–	–	–	–
Cc1coc([C@@H]2C[C@]3(C[C@H](C)N2)OCCc2cc(Cl)sc23)n1 (racemic) [Compound 155]	> 500	97	50 to 500	–	–	–	–
C[C@H]1CC2(CC(c3cn(C)cn3)N1)OCC(O)c1cc(Cl)sc12 (stereo in doubt) [Compound 179]	< 50	–	< 50	–	99.0	119.5	< 50
CC1CC2(CC(c3cccc(C#N)c3)N1)OCCc1cc(Cl)sc12 (centres unmarked) [Compound 24]	< 50	107	< 50	–	100.0	–	–
C[C@H]1C[C@@]2(C[C@@H](c3ccon3)N1)OCCc1cc(Cl)sc12 (racemic) [Compound 96]	< 50	104	< 50	–	–	–	–
Cc1cc([C@@H]2C[C@]3(C[C@H](C)N2)OCCc2cc(Cl)sc23)no1 (racemic) [Compound 29]	< 50	109	< 50	–	100.0	–	< 50
C[C@H]1C[C@@]2(C[C@@H](c3cc(-c4ccccn4)n[nH]3)N1)OCCc1cc(Cl)sc12 (racemic) [Compound 88]	< 50	98	< 50	–	99.3	–	< 50
C[C@H]1C[C@@]2(C[C@@H](c3cnn(C)c3)N1)OCCc1cc(Cl)sc12 [Compound 19, (2S)-2-chloro-2′-methyl-6′-(1-methylpyrazol-4-yl)spiro[4,5-dihydrothieno[2,3-c]pyran-7,4′-piperidine]]	< 50	107	< 50	–	–	–	–
Cc1c([C@@H]2C[C@]3(C[C@H](C)N2)OCCc2cc(Cl)sc23)cnn1C (racemic) [Compound 136]	50 to 500	100	50 to 500	–	–	–	–
C[C@H]1C[C@@]2(C[C@@H](c3cnn(-c4ccccc4)c3)N1)OCCc1cc(Cl)sc12 (racemic) [Compound 65]	< 50	105	< 50	–	–	–	–
CC1CC2(CC(C3CC3(F)F)N1)OCCc1cc(Cl)sc12 (single isomer, unassigned) [Compound 213]	50 to 500	–	50 to 500	–	99.5	98.7	50 to 500
C[C@H]1C[C@@]2(C[C@@H](c3cnccn3)N1)OCCc1cc(Cl)sc12 (racemic) [Compound 101]	50 to 500	114	< 50	–	100.0	–	–
C[C@H]1C[C@@]2(C[C@@H](c3cn(C)nn3)N1)OC[C@@H](O)c1cc(Cl)sc12 [Compound 174, (2′S,4S,6′S,7S)-2-chloro-2′-methyl-6′-(1-methyltriazol-4-yl)spiro[4,5-dihydrothieno[2,3-c]pyran-7,4′-piperidine]-4-ol]	< 50	104	< 50	–	–	–	–
COc1ccnc([C@@H]2C[C@]3(C[C@H](C)N2)OCCc2cc(Cl)sc23)n1 (racemic) [Compound 145]	50 to 500	88	50 to 500	–	–	–	–
C[C@H]1C[C@@]2(C[C@@H](c3cn(C)nn3)N1)OC[C@@H](O)c1sc(Cl)cc12 [Compound 182]	< 50	113	< 50	–	–	–	–
